{
  "source": "paper PMC4703110",
  "about": "(Journal of chemical information and modeling, 2015)",
  "molecular_target": "human μ-opioid receptor (Homo sapiens, UniProt P35372)",
  "sequence (P35372 whole entry)": "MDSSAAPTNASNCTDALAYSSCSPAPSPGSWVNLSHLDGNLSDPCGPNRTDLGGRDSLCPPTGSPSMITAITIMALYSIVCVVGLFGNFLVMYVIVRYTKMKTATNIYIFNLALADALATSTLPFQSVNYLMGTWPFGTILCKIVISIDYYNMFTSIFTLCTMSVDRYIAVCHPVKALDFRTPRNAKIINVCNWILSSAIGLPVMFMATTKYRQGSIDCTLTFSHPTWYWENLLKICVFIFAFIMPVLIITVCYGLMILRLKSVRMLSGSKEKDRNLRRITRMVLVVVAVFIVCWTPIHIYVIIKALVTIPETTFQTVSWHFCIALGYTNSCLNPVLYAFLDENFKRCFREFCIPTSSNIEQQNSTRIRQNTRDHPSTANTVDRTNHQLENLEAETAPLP",
  "format": "cell-based",
  "conditions": "read-out: EC50, μM (PAM mode)",
  "data": [
    {"smiles": "COc1ccc(C2SCCN2S(=O)(=O)c2ccc(Cl)cc2)cc1Br", "note": "(stereo not shown) [BMS-986122]", "values": [
      {"measurement": "EC50", "value": 16.2, "unit": "µM"}
    ]}
  ]
}
